This is an account of results in patent publication EP4227307A1 (Genzyme Corporation, priority 2022, dated 2023).

Counter-ions that a name gives are not always drawn.

The target in the assay is T1, human recombinant 6His-Nterm SHP2 full-length (Thr2-Arg593) (Homo sapiens, UniProt Q06124).
T1 construct: 6His-Nterm SHP2 full-length (Thr2-Arg593, R&D system); 6His (N); purchased R&D system
T1 sequence (Q06124 2-593): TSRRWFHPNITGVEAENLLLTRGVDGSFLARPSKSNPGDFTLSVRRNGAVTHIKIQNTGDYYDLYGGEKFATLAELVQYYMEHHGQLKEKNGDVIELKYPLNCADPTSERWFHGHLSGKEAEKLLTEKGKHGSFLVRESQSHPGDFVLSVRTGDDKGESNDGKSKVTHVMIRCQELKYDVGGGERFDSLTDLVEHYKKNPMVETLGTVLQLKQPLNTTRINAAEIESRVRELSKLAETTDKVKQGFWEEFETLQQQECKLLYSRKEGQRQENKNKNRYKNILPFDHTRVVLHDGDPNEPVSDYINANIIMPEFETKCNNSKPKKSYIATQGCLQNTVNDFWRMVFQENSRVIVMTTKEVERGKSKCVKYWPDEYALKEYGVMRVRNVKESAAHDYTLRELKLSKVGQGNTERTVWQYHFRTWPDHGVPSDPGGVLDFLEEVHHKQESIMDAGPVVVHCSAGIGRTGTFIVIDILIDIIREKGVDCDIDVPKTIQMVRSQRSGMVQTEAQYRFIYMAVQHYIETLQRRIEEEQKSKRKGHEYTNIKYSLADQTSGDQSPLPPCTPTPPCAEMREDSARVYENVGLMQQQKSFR
The assay can be described thus: SHP2 Phosphatase Assay (DiFMUP fluorescence). In kind it is biochemical. The settings on record: SHP2 0.2 nM pre-incubated with 100 nM bi-phosphorylated activating peptide; compound 1000-0.05 nM, 30 min pre-incubation; DiFMUP 20 µM, 45 min, room temperature; 10-concentration dose-response. The procedure, abridged:
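SHP2 (0.2 nM) preactivated ≥10 min with 100 nM bis-phosphorylated peptide, then 30 min with compound (10 concentrations, 1000–0.05 nM) at room temperature, pH 7.2 HEPES buffer with DTT. DiFMUP (20 µM, added solution) reacted 45 min, pervanadate-stopped; fluorescence 350/450 nm. IC50 by 4-parameter logistic fit.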
For `Cc1cc2c(cn1)CC1(CCN(c3nc(C)c(-c4cccc(C#N)c4F)n4nccc34)CC1)[C@@H]2N` [Compound 117, 3-[4-[(5S)-5-amino-3-methyl-spiro[5,7-dihydrocyclopenta[c]pyridine-6,4'-piperidine]-1'-yl]-6-methyl-pyrazolo[1,5-a]pyrazin-7-yl]-2-fluoro-benzonitrile hydrochloride], the IC50 (as a rule, the concentration that inhibits the measured activity by half) came out at 10 nM.
Take `COc1ccc2c(c1)[C@@H](N)C1(CCN(c3nc(C)c(-c4ccnc(C)c4F)n4nccc34)CC1)C2` [Compound 118, (1S)-1'-[7-(3-fluoro-2-methyl-4-pyridyl)-6-methyl-pyrazolo[1,5-a]pyrazin-4-yl]-6-methoxy-spiro [indane-2,4'-piperidine]-1-amine hydrochloride]: the IC50 was determined as 4 nM.
For the molecule `COc1ccc2c(c1)[C@@H](N)C1(CCN(c3nc(C)c(-c4ccncc4Cl)n4nccc34)CC1)C2` [Compound 119, hydrochloride], the IC50 is 4 nM.
As for `COc1ccc2c(c1)[C@@H](N)C1(CCN(c3nc(C)c(-c4cnn(C)c4C)n4nccc34)CC1)C2` [Compound 120, (1S)-1'-[7-(1,5-dimethylpyrazol-4-yl)-6-methyl-pyrazolo[1,5-a]pyrazin-4-yl]-6-methoxy-spiro[indane-2,4'-piperidine]-1-amine hydrochloride], the figure is 11 nM; as for `COc1cc2c(cn1)[C@@H](N)C1(CCN(c3nc(C)c(-c4ccnc(C)c4Cl)n4nccc34)CC1)C2` [Compound 121, (7S)-1'-[7-(3-chloro-2-methyl-4-pyridyl)-6-methyl-pyrazolo[1,5-a]pyrazin-4-yl]-3-methoxy-spiro [5,7-dihydrocyclopenta[c]pyridine-6,4'-piperidine]-7-amine], 8 nM; as for `COc1cc2c(cn1)[C@@H](N)C1(CCN(c3nc(C)c(-c4ccccc4F)n4nccc34)CC1)C2` [Compound 122, (7S)-1''-[7-(2-fluorophenyl)-6-methyl-pyrazolo[1,5-a]pyrazin-4-yl] -3-methoxy-spiro [5,7-dihydrocyclopenta[c]pyridine-6,4'-piperidine]-7-amine], 12 nM.
As for `COc1ccc2c(c1)[C@@H](N)C1(CCN(c3nc(C)c(-c4cc(C)nn4C)n4nccc34)CC1)C2` [Compound 123, (1S)-1'-[7-(2,5-dimethylpyrazol-3-yl)-6-methyl-pyrazolo[1,5-a]pyrazin-4-yl]-6-methoxy-spiro[indane-2,4'-piperidine]-1-amine hydrochloride], the figure is 9 nM; as for `Cc1cc(-c2c(C)nc(N3CCC4(CC3)Cc3ncccc3[C@H]4N)c3ccnn23)cnn1` [Compound 124, (5S)-1'-[6-methyl-7-(6-methylpyridazin-4-yl)pyrazolo[1,5-a]pyrazin-4-yl]spiro[5,7-dihydrocyclopenta[b]pyridine-6,4'-piperidine]-5-amine hydrochloride], 391 nM; as for `CCn1ncc(-c2c(C)nc(N3CCC4(CC3)Cc3ccc(OC)cc3[C@H]4N)c3ccnn23)c1C` [Compound 125, (1S)-1'-[7-(1-ethyl-5-methyl-pyrazol-4-yl)-6-methyl-pyrazolo[1,5-a]pyrazin-4-yl]-6-methoxy-spiro [indane-2,4'-piperidine]-1-amine hydrochloride], 9 nM.
As to `COc1ccc2c(c1)[C@@H](N)C1(CCN(c3nc(C)c(-c4cnn(C)c4Cl)n4nccc34)CC1)C2` [Compound 126, (1S)-1'-[7-(5-chloro-1-methyl-pyrazol-4-yl)-6-methyl-pyrazolo[1,5-a]pyrazin-4-yl] -6-methoxy-spiro[indane-2,4'-piperidine]-1-amine hydrochloride], the concentration for half-maximal inhibition (IC50) turned out to be 4 nM.
Take `COc1ccc2c(c1)[C@@H](N)C1(CCN(c3nc(C)c(-c4cc(C(F)(F)F)nn4C)n4nccc34)CC1)C2` [Compound 127, (1S)-6-methoxy-1'-[6-methyl-7-[2-methyl-5-(trifluoromethyl)pyrazol-3-yl]pyrazolo[1,5-a]pyrazin-4-yl]spiro[indane-2,4'-pipendine]-1-amine hydrochloride]: the IC50 worked out at 22 nM.
Take `Cc1nccc(-c2c(C)nc(N3CCC4(CC3)Oc3ccccc3[C@H]4N)c3ccnn23)c1Cl` [Compound 128, (3R)-1'-[7-(3-chloro-2-methyl-4-pyridyl)-6-methyl-pyrazolo[1,5-a]pyrazin-4-yl]spiro[3H-benzofuran-2,4'-piperidine]-3-amine]: the IC50 was 17 nM.
In the case of `Cc1nc(N2CCC3(CC2)Oc2ncccc2[C@H]3N)c2ccnn2c1-c1cccc(F)c1C(F)(F)F` [Compound 129, (3R)-1'-[7-[3-fluoro-2-(trifluoromethyl)phenyl]-6-methyl-pyrazolo[1,5-a]pyrazin-4-yl]spiro[3H-furo[2,3-b]pyridine-2,4'-piperidine]-3-amine], the half-maximal inhibitory concentration (IC50) is greater than 1000 nM.
Turning to `Cc1nc(N2CCC3(CC2)Cc2cccnc2[C@H]3N)c2ccnn2c1-c1cnn(C)c1C` [Compound 130, (7S)-1'-[7-(1,5-dimethylpyrazol-4-yl)-6-methyl-pyrazolo[1,5-a]pyrazin-4-yl]spiro[5,7-dihydrocyclopenta[b]pyridine-6,4'-piperidine]-7-amine], the IC50 came to 60 nM.
As for `COc1cc2c(cn1)CC1(CCN(c3nc(C)c(-c4ccccc4F)n4nccc34)CC1)[C@@H]2N` [Compound 131, (5S)-1'-[7-(2-fluorophenyl)-6-methyl-pyrazolo[1,5-a]pyrazin-4-yl] -3-methoxy-spiro [5,7-dihydrocyclopenta[c]pyridine-6,4'-piperidine]-5-amine], the figure is 13 nM.
Regarding `Cc1nc(N2CCC3(CC2)Cc2ccncc2[C@H]3N)c2ccnn2c1-c1ccccc1F` [Compound 134, (7S)-1'-[7-(2-fluorophenyl)-6-methyl-pyrazolo[1,5-a]pyrazin-4-yl]spiro[5,7-dihydrocyclopenta[c]pyridine-6,4'-piperidine]-7-amine], the IC50 was 4 nM.
For the molecule `COc1cc2c(cn1)CC1(CCN(c3nc(C)c(-c4ccccc4)n4nccc34)CC1)[C@@H]2N` [Compound 135, (5S)-3-methoxy-1'-(6-methyl-7-phenyl-pyrazolo[1,5-a]pyrazin-4-yl)spiro[5,7-dihydrocyclopenta[c]pyridine-6,4'-piperidine]-5-amine], the half-inhibitory concentration (IC50) was found to be 12 nM.
As for `Cc1nc(N2CCC3(CC2)Cc2ncccc2[C@@H]3N)c2ccnn2c1-c1ccccc1F` [Compound 136, (5R)-1'-[7-(2-fluorophenyl)-6-methyl-pyrazolo[1,5-a]pyrazin-4-yl]spiro[5,7-dihydrocyclopenta[b]pyridine-6,4'-piperidine]-5-amine], the half-inhibitory concentration (IC50) worked out at 383 nM.
For `COc1cc2c(cn1)CC1(CCN(c3nc(C)c(-c4ccnc(C)c4Cl)n4nccc34)CC1)[C@@H]2N` [Compound 137, (5S)-1'-[7-(3-chloro-2-methyl-4-pyridyl)-6-methyl-pyrazolo[1,5-a]pyrazin-4-yl]-3-methoxy-spiro[5,7-dihydrocyclopenta[c]pyridine-6,4'-piperidine]-5-amine], the half-inhibitory concentration (IC50) was 6 nM.
Turning to `Cc1nc(N2CCC3(CC2)Cc2ccncc2[C@H]3N)c2ccnn2c1-c1ccccc1` [Compound 138, (7S)-1'-(6-methyl-7-phenyl-pyrazolo[1,5-a]pyrazin-4-yl)spiro[5,7-dihydrocyclopenta[c]pyridine-6,4'-piperidine]-7-amine], the IC50 stood at 4 nM.
Turning to `Cc1nccc(-c2c(C)nc(N3CCC4(CC3)Cc3ccncc3[C@H]4N)c3ccnn23)c1Cl` [Compound 139, (7S)-1'-[7-(3-chloro-2-methyl-4-pyridyl)-6-methyl-pyrazolo[1,5-a]pyrazin-4-yl]spiro[5,7-dihydrocyclopenta[c]pyridine-6,4'-piperidine]-7-amine], the IC50 was 4 nM.
With `Cc1nccc(-c2c(C)nc(N3CCC4(CC3)Cc3ccncc3[C@H]4N)c3ccnn23)c1F` [Compound 140, (7S)-1'-[7-(3-fluoro-2-methyl-4-pyridyl)-6-methyl-pyrazolo[1,5-a]pyrazin-4-yl]spiro[5,7-dihydrocyclopenta[c]pyridine-6,4'-piperidine]-7-amine], the IC50 was 7 nM.
Turning to `Cc1nc(N2CCC3(CC2)Cc2ncccc2[C@@H]3N)c2ccnn2c1-c1ccccc1` [Compound 141, (5R)-1'-(6-methyl-7-phenyl-pyrazolo[1,5-a]pyrazin-4-yl)spiro[5,7-dihydrocyclopenta[b]pyridine-6,4'-piperidine]-5-amine], the concentration for half-maximal inhibition (IC50) turned out to be 853 nM.
On to `Cc1nc(N2CCC3(CC2)Cc2ncccc2[C@H]3N)c2c(F)cnn2c1-c1ccccc1F` [Compound 142, (5S)-1'-[3-fluoro-7-(2-fluorophenyl)-6-methyl-pyrazolo [1,5-a]pyrazin-4-yl]spiro[5,7-dihydrocyclopenta[b]pyridine-6,4'-piperidine]-5-amine hydrochloride], for which the half-maximal inhibitory concentration (IC50) was 26 nM.
